From article PMC5407626 (PLoS ONE, 2017)

Assays:
[1] = biological target: T1, RARβ (Homo sapiens, UniProt P10826); experiment: GeneBLAzer RAR-beta DA assay, agonist mode; assay type: cell-based
T1 sequence (P10826 183-417 limits assumed): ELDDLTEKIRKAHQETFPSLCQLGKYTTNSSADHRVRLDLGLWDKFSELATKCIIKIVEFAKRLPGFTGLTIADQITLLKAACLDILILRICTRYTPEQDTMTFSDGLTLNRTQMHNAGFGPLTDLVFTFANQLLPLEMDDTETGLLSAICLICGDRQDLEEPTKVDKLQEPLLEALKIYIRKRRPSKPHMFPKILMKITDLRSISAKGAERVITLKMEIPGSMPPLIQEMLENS
Experimental: (§1) The potency of agonists and antagonists was measured by GeneBLAzer RAR-beta DA Assay Kit (ThermoFisher Scientific) according to the manufacturer’s recommendations.
The phenylretinamides may have the ability to modulate the expression of proteins and induce cell apoptosis via RAR-dependent and -independent pathways. […] Human retina-derived cells in culture show differences in expression of RAR receptors. […] Clonetics HRPE primary human cells specifically express only RARβ [50].

[2] = biological target: T1, RARβ; experiment: GeneBLAzer RAR-beta DA assay, antagonist mode (competition with at-RA); assay type: cell-based; conditions: at-RA 0.5–1.5 nM; tested 10^−5 to 10^−9 M
Experimental: as §1
The phenylretinamides may have the ability to modulate the expression of proteins and induce cell apoptosis via RAR-dependent and -independent pathways. […] Additionally, apoptosis of neuroblastoma cell lines was blocked by two retinoic acid receptor (RAR)-β/γ-specific antagonists, but not by a RARα-specific antagonist. […] However, in this case the specific RARα-specific antagonist AGN194301 could block fenretinde-induced apoptosis. […] Human retina-derived cells in culture show differences in expression of RAR receptors. […] Clonetics HRPE primary human cells specifically express only RARβ [50].
Fluorescence was measured at excitation (ex) 409 nm/emission (em) 460 and at ex 409nm/em 530 nm and the ratio was determined and plotted against a range of concentrations (10^−5 to 10^−9 M) of the tested compounds.

[3] = biological target: T2, recombinant mouse BCO1 (Mus musculus, UniProt Q9JJS6); experiment: In vitro inhibition of recombinant mouse BCO1 activity; assay type: biochemical; conditions: inhibitor 0–200 μM
T2 construct: His-tag; made in house; host or cells: E. coli
T2 sequence (Q9JJS6 1-566): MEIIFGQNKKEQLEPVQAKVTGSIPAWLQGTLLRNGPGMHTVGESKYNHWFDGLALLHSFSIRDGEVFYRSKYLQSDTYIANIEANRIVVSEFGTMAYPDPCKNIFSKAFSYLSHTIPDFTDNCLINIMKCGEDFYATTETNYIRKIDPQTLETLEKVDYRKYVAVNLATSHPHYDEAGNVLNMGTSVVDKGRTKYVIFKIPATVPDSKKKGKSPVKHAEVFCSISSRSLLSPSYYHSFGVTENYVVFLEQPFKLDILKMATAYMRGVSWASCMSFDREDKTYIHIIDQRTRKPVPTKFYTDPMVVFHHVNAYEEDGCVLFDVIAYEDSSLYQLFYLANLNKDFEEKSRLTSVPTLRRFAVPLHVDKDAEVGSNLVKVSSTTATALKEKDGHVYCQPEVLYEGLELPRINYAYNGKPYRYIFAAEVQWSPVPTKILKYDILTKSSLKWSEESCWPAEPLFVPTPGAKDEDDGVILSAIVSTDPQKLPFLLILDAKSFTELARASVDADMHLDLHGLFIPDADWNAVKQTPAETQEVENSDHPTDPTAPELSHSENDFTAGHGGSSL
Text: Recombinant His-tag mouse BCO1 was produced in E.coli and purified using Talon CellThru (Clontech Labs, Inc., Mountain View, CA) resin as described previously. β-carotene was delivered in 1% octylthioglucoside. […] All other inhibitors were delivered in ethanol. […] The final concentration of ethanol in all samples was 1%. […] Data plotted as means±standard deviation; n = 3; […] Analysis was done in C57BL/6 wt (3 animals) and Bco1^-/- mice (13 animals).

[4] = biological target: RBP4 (Homo sapiens, UniProt P02753); experiment: Binding to RBP4; conditions: data not shown

EC50 [1]: 4.4 µM | competition with all-trans-retinoic acid [2]: cannot compete | effect on BCO1 activity [3]: does not inhibit BCO1 activity | RBP4 binding compared with MPR [4]: less potent inhibitor
SMILES: CCOc1ccc(NC(=O)/C=C(C)/C=C/C=C(C)/C=C/C2=C(C)CCCC2(C)C)cc1 [EPR, N-[4-ethoxyphenyl]retinamide]
